In patent US20160060322A1, “RELAXIN-LIKE PEPTIDES AND USES THEREOF” (ANGION BIOMEDICA CORP., priority 2012, published 2016):

Tested on: HEK-293T cells
Assay: cAMP production in parental HEK-293T cells lacking RXFP1
Type: cell-based
Details: parental HEK-293T cells (lack RXFP1); H2R 10 ng/mL

## H2R: ~6 kd peptide hormone, 24 amino acid A chain (SEQ ID NO:5) and 29 amino acid B chain (SEQ ID NO:6) linked by disulfide bridges (chain 1 ZLYSALANKCCHVGCTKRSLARFC; chain 2 DSWMEEVIKLCGRELVRAQIAICGMSTWS; disulfide bridges; listed as Homo sapiens)
  cAMP response in parental cells: no cAMP response
